According to ChEMBL document CHEMBL1158974, “Iridoids: a new class of leishmanicidal agents from Nyctanthes arbortristis” (J Nat Prod, 1991):
Calls of active or inactive are those of the source. No cut-off for these calls is given here.

Legend:
Leishmania donovani [1] = assay: Antileishmanial activity against Leishmania donovani HOM/IN/80/Dd8 amastigotes infected in Sigmodon hispidus peritoneal macrophages assessed as reduction in average number of amastigotes per infected macrophage at 30 ug/ml; assay type: functional; details: for inhibition at 30 µg/mL: HOM/IN/80/Dd8, in Sigmodon hispidus
Leishmania donovani [2] = assay: Antileishmanial activity against Leishmania donovani HOM/IN/80/Dd8 amastigotes infected in Mesocricetus auratus assessed as survival days at 10 mg/kg, ip administered daily for 5 days; assay type: functional
Leishmania donovani [3] = assay: Antileishmanial activity against Leishmania donovani HOM/IN/80/Dd8 amastigotes infected in Sigmodon hispidus peritoneal macrophages assessed as reduction in infected macrophages at 30 ug/ml; assay type: functional; details: for inhibition at 30 µg/mL: HOM/IN/80/Dd8, in Sigmodon hispidus
[4] = Cytotoxicity against Sigmodon hispidus peritoneal macrophages at 60 ug/ml; assay type: cell-based; details: peritoneal macrophage cell
Leishmania donovani [5] = assay: Antileishmanial activity against Leishmania donovani HOM/IN/80/Dd8 amastigotes infected in Mesocricetus auratus at 10 mg/kg, ip administered daily for 5 days measured after 7 days; assay type: functional; details: for inhibition in vivo at 10 mg/kg: HOM/IN/80/Dd8, in Mesocricetus auratus, route intraperitoneal
Leishmania donovani [6] = assay: Antileishmanial activity against Leishmania donovani HOM/IN/80/Dd8 amastigotes infected in Sigmodon hispidus peritoneal macrophages assessed as reduction in average number of amastigotes per infected macrophage at 60 ug/ml; assay type: functional; details: HOM/IN/80/Dd8, in Sigmodon hispidus
Leishmania donovani [7] = assay: Antileishmanial activity against Leishmania donovani HOM/IN/80/Dd8 amastigotes infected in Sigmodon hispidus peritoneal macrophages assessed as reduction in infected macrophages at 60 ug/ml; assay type: functional; details: HOM/IN/80/Dd8, in Sigmodon hispidus
Leishmania donovani [8] = assay: Antileishmanial activity against Leishmania donovani HOM/IN/80/Dd8 amastigotes infected in Mesocricetus auratus at 10 mg/kg, ip administered daily for 5 days measured after 28 days; assay type: functional
Leishmania donovani [9] = assay: Antileishmanial activity against Leishmania donovani HOM/IN/80/Dd8 amastigotes infected in Sigmodon hispidus peritoneal macrophages assessed as reduction in average number of amastigotes per infected macrophage at 100 ug/ml; assay type: functional
Leishmania donovani [10] = assay: Antileishmanial activity against Leishmania donovani HOM/IN/80/Dd8 amastigotes infected in Mesocricetus auratus at 100 mg/kg, po administered daily for 5 days; assay type: functional; details: HOM/IN/80/Dd8, in Mesocricetus auratus, 120 h
Leishmania donovani [11] = assay: Antileishmanial activity against Leishmania donovani HOM/IN/80/Dd8 amastigotes infected in Sigmodon hispidus peritoneal macrophages assessed as reduction in infected macrophages at 100 ug/ml; assay type: functional
Leishmania donovani [12] = assay: Antileishmanial activity against Leishmania donovani HOM/IN/80/Dd8 amastigotes assessed as minimum effective dose; assay type: functional, organism-based
[13] = HOM/IN/80/Dd8, in Sigmodon hispidus

| Compound | inhibition at 30 µg/mL (Leishmania donovani [1]) [%] | Survival (Leishmania donovani [2]; route intraperitoneal) [days] | inhibition at 30 µg/mL (Leishmania donovani [3]) [%] | Activity [4] | inhibition (Leishmania donovani [5]) | inhibition (Leishmania donovani [8]) | inhibition in vivo at 10 mg/kg (Leishmania donovani [5]) [%] | further results |
| --- | --- | --- | --- | --- | --- | --- | --- | --- |
| COC(=O)C1=CO[C@@H](O[C@@H]2O[C@H](CO)[C@@H](O)[C@H](O)[C@H]2O)[C@@H]2[C@@H](C)[C@@H](OC(=O)/C=C/c3ccc(O)cc3)[C@@H](O)[C@H]12 [ARBORTRISTOSIDE C] | 67.4 | <28 | 39.9 | Toxic | inactive |  |  |  |
| COC(=O)C1=CO[C@@H](O[C@@H]2O[C@H](CO)[C@@H](O)[C@H](O)[C@H]2O)[C@@H]2[C@@H](CO)[C@@H](OC(=O)/C=C/c3ccc(O)c(O)c3)[C@@H](O)[C@H]12 [ARBORTRISTOSIDE B] | 25.1 | 59 | 28.1 |  | inactive | inactive |  | inhibition at 60 µg/mL (Leishmania donovani [6]): 47.3%; inhibition at 60 µg/mL (Leishmania donovani [7]): 41.7% |
| COC(=O)C1=CO[C@@H](O[C@@H]2O[C@H](CO)[C@@H](O)[C@H](O)[C@H]2O)[C@@H]2[C@@H](C)[C@@H](OC(=O)/C=C/c3ccc(OC)cc3)[C@@H](O)[C@H]12 [ARBORTRISTOSIDE A] | 45.8 | 38 | 7.13 |  |  |  | 18.2 | inhibition at 100 µg/mL (Leishmania donovani [9]; [13]): 64.6%; inhibition in vivo at 10 mg/kg (Leishmania donovani [8]; HOM/IN/80/Dd8, in Mesocricetus auratus, route intraperitoneal): 79.7%; inhibition in vivo at 100 mg/kg (Leishmania donovani [10]): 57%; inhibition at 100 µg/mL (Leishmania donovani [11]; [13]): 30.2% |
| COC(=O)C1=CO[C@@H](O[C@@H]2O[C@H](CO)[C@@H](O)[C@H](O)[C@H]2O)[C@@H]2[C@@H](C)[C@@H](O)[C@@H](O)[C@H]12 | 65.8 | <28 | 42.2 | Toxic |  |  | 30.8 |  |
| sodium stibogluconate |  |  |  |  | 71.9% | 93.5% |  | inhibition (Leishmania donovani [9]): 100%; inhibition (Leishmania donovani [1]): 80%; Survival (Leishmania donovani [2]): < 30 days; MED (Leishmania donovani [12]): 10 mg/kg; inhibition (Leishmania donovani [3]): 80%; inhibition (Leishmania donovani [11]): 100% |
